Measured values from PMC10359459 (Nucleic Acids Research, 2023).

Target: T1, BldD (Saccharopolyspora erythraea, UniProt A4FBF9)
T1 sequence (A4FBF9 1-162): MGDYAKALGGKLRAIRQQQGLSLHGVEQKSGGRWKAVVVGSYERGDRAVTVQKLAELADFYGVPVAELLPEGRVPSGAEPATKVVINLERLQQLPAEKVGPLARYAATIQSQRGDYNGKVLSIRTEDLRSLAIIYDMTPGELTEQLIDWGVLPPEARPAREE
Assay: isothermal titration calorimetry
Assay type: binding

- Kd: 570 nM
SMILES: Nc1nc2c(ncn2[C@@H]2O[C@@H]3CO[P@](=O)(O)O[C@H]4[C@@H](O)[C@H](n5cnc6c(=O)[nH]c(N)nc65)O[C@@H]4CO[P@](=O)(O)O[C@H]3[C@H]2O)c(=O)[nH]1 [c-di-GMP]
